One series concerns p38 MAP kinase. Kind of series: LPS-induced MAP kinase activation, Western blot (p38). The settings on record: RAW 264.7 macrophages, LPS in the presence of CO. It is filed as cell-based, mouse. An excerpt:
(§1) Animals. Male C57BL/6 and IL-10 (−/−) mice were purchased from Jackson Laboratory (Bar Harbor, Me.), and allowed to acclimate for one week with rodent chow and water ad libitum. The MKK (−/−) mice were generated as previously described [Lu, et al., EMBO J. 18:1845-1857 (1999)]. Wild type littermates were used as controls. All animals were housed in accordance with guidelines from the American Association for Laboratory Animal Care and Research Protocols and were approved by the Animal Care and Use Committee of Yale University School of Medicine. Reagents. All reagents were purchased from Sigma Chemical Co. (St Louis, Mo.) unless specified otherwise. Plasmid Construct. Plasmid pSFFV/HO-1 was constructed by insertion of the rat HO-1 cDNA [Shibahara, et al., Proc. Natl. Acad. Sci. USA. 82: 7865-7869 (1985)] downstream of the Friend spleen focus-forming virus 5′ long-terminal repeat in the mammalian expression vector pSFFV/neo [Fuhlbrigge, et al, Proc. Natl. Acad. Sci. USA. 85: 5649-5653 (1988)] (kindly provided by Stanley Korsmeyer). Transfection. […] Gas samples were taken by the analyzer through a port in the top of the chambers at a rate of 1 L/min and analyzed by electrochemical detection, with a sensitivity of 10-600 ppm. Concentration levels were measured hourly and there were no fluctuations in the CO concentrations once the chamber had equilibrated (approximately 5 min). […]
In general terms: A western blot detects proteins with antibodies after separation by electrophoresis.

The test system of another series is ERK1/ERK2. Kind of series: LPS-induced MAP kinase activation, Western blot (ERK1/ERK2). In kind it is cell-based, mouse. Particulars: RAW 264.7 macrophages, LPS in the presence of CO.
Text: as §1

In a further series the test system is rats. Kind of series: Tolerability of low concentrations of CO in rats. It is filed as in vivo, rat. An excerpt:
Animals were exposed to >98% O2 or 98% O2+CO mixtures at a flow rate of 12 liters/min in a 3.70-cubic-foot glass exposure chamber. Animals were supplied food and water during the exposures. CO at a concentration of 1% (10,000 ppm) in compressed air was mixed with >98% O2 in a stainless steel mixing cylinder prior to entering the exposure chamber. By varying the flow rates of CO into the mixing cylinder, concentrations delivered to the exposure chamber were controlled. Because the flow rate was primarily determined by the O2 flow, only the CO flow was changed to generate the different concentrations delivered to the exposure chamber. A carbon monoxide analyzer (Interscan Corporation, Chatsworth, Calif.) was used to measure CO levels continuously in the chamber. Gas samples were taken by the analyzer through a port in the top of the exposure chamber at a rate of 1 liter/min and analyzed by electrochemical detection with a sensitivity of 10 ppm to 600 ppm. CO levels in the chamber were recorded at hourly intervals and there were no changes in chamber CO concentrations once the chamber had equilibrated. O2 concentrations in the chamber were determined using a gas spectrometer.

A further series relates to JNK. Kind of series: LPS-induced MAP kinase activation, Western blot (JNK). In kind it is cell-based, mouse. Particulars: RAW 264.7 macrophages, LPS in the presence of CO.
Text: as §1

For the molecule `[C-]#[O+]` [CO, carbon monoxide], the “LPS-induced p38 MAP kinase activation” value with p38 MAP kinase is recorded as “significantly augmented”. For the same molecule, in the series with ERK1/ERK2, the “LPS-induced ERK1/ERK2 MAP kinase activation” value was “not affected”. Also, the “500 ppm as fraction of the lethal concentration of CO” value with rats (in our model (data not shown)) is listed as “one twentieth”. In addition, in the series with rats (rats exposed to CO (50-500 ppm) alone), the untoward effects result was “did not exhibit any untoward effects”. The “LPS-induced JNK MAP kinase activation” value in the series on JNK was “not affected”.

The values are drawn from patent publication US7678390B2, “Carbon monoxide as a biomarker and therapeutic agent” (priority 1999, dated 2010).
